# Data reported in patent US11419869B2, “Dosage forms and regimens for amino acid compounds” (Pliant Therapeutics, Inc., priority 2019, dated 2022).
# What was measured:
# [1] = target: recombinant human integrin αvβ6 (Homo sapiens (Human), UniProt P06756+P18564); test: Solid Phase Integrin αvβ6 Binding Assay (Examples B1, B2); details: TGFβ1 LAP ligand, values given in four ranges, read-out: αvβ6 Inhibition IC50 (nM)-range
# How it was run: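 Plates coated with recombinant human αvβ6 (2 μg/mL) compete compound against recombinant TGFβ1 LAP (0.67 μg/mL) in TBS binding buffer with 0.5 mM MnCl2, 2 h at 25 °C. Bound LAP detected with biotin-anti-hLAP and peroxidase-streptavidin; IC50 by four-parameter logistic regression.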
# [2] = tested on: Type I Collagen gene Col1a1 expression; test: Precision cut lung slices, mice under acute bleomycin exposure (Example B8); type: cell-based; details: 3 days culture, normalized to DMSO, FIG. 5A
# Protocol: Mice (C57BL/6) were administered 3 U/kg of bleomycin (Teva Pharmaceuticals; North Wales, Pa.) on day 0 via oropharyngeal aspiration while under anesthesia. On day 14, precision cut lung slices were obtained. Following euthanization, 2% low gelling temp agarose was injected into the mouse lungs via the trachea. […] The lobes were then subjected to precision slicing to obtain samples for culture using a microtome (Compresstome VF-300-0Z, Precisionary; Greenville, N.C.). Individual slices were distributed in a multiwell culture plate and cultured for 3 days under control (DMSO) and test compound conditions.
# Sequence of recombinant human integrin αvβ6 (P06756 31-992): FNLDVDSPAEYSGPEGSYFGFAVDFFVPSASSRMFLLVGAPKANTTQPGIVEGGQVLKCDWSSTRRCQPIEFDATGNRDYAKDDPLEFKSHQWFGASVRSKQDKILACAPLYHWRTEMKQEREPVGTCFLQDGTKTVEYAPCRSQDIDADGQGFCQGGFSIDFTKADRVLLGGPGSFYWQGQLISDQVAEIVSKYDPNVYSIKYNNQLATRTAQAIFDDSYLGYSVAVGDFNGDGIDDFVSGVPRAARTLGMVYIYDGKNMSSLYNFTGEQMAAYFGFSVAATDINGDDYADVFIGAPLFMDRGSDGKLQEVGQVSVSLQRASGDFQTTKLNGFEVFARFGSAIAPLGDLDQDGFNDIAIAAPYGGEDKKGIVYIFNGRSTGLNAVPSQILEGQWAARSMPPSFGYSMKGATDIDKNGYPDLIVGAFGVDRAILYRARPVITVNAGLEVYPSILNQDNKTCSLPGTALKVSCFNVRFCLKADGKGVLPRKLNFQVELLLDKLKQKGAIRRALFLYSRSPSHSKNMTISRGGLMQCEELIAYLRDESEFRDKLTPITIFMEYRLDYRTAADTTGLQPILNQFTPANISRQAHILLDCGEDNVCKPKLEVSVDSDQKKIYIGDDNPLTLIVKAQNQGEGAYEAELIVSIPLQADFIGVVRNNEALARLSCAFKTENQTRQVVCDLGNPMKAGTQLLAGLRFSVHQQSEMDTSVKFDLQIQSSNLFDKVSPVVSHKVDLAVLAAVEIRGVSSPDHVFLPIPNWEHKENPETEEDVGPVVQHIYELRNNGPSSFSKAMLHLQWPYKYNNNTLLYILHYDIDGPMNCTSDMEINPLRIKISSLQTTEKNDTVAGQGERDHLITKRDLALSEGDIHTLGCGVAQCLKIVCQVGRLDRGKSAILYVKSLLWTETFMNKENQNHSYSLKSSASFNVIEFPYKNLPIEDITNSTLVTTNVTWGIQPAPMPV
# Sequence of recombinant human integrin αvβ6 (P18564 22-707): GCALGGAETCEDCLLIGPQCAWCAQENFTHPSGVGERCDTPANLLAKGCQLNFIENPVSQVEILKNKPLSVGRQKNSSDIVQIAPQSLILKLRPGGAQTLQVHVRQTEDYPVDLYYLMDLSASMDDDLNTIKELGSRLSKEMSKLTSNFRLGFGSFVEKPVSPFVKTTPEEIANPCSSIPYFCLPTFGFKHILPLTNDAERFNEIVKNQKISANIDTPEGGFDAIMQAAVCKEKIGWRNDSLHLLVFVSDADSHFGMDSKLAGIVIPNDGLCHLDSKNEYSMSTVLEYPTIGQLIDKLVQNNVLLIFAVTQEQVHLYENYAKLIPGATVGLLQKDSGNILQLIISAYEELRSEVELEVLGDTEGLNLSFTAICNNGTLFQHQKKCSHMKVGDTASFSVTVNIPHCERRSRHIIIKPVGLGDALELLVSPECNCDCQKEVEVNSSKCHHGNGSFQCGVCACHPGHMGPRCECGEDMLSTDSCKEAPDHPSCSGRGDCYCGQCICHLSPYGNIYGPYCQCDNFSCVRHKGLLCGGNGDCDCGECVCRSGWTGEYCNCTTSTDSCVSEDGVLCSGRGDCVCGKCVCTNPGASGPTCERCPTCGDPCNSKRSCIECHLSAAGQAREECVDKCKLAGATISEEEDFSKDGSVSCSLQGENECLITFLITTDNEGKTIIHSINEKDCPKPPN
IC50 [1] [nM],SMILES,Type I Collagen gene Col1a1 expression [2]
> 1000,"O=C(O)[C@H](CCN(CCCCc1ccc2c(n1)NCCC2)CC(F)F)Nc1ccncn1 [Compound 120, (S)-4-((2,2-difluoroethyl) (4-(5,6,7,8-tetrahydro-1,8-naphthyridin-2-yl)butyl)amino)-2-(pyrimidin-4-ylamino) butanoic acid]",–
> 1000,"O=C(O)[C@H](CCN(CCCCc1ccc2c(n1)NCCC2)CC(F)F)Nc1ncc(F)cn1 [Compound 121, (S)-4-((2,2-difluoroethyl) (4-(5,6,7,8-tetrahydro-1,8-naphthyridin-2-yl)butyl)amino)-2-((5-fluoropyrimidin-2-yl)amino) butanoic acid]",–
< 50,"Cn1ncc2c(N[C@@H](CCN(CCCCc3ccc4c(n3)NCCC4)CCOc3ccc(F)cc3)C(=O)O)ncnc21 [Compound 123, (S)-4-((2-(4-fluorophenoxy)ethyl) (4-(5,6,7,8-tetrahydro-1,8-naphthyridin-2-yl)butyl)amino)-2-((1-methyl-1H-pyrazolo[3,4-d]pyrimidin-4-yl)amino) butanoic acid]",–
< 50,"CO[C@H](C)CN(CCCCc1ccc2c(n1)NCCC2)CC[C@H](Nc1ncc(C2CC2)cn1)C(=O)O [Compound 124, (S)-2-((5-cyclopropylpyrimidin-2-yl)amino)-4-(((R)-2-methoxypropyl) (4-(5,6,7,8-tetrahydro-1,8-naphthyridin-2-yl)butyl)amino) butanoic acid]",–
> 1000,"CS(=O)(=O)CCN(CCCCc1ccc2c(n1)NCCC2)CC[C@H](Nc1cc(-n2cccn2)ncn1)C(=O)O [Compound 126, (S)-2-((6-(1H-pyrazol-1-yl)pyrimidin-4-yl)amino)-4-((2-(methylsulfonyl)ethyl) (4-(5,6,7,8-tetrahydro-1,8-naphthyridin-2-yl)butyl)amino) butanoic acid]",–
> 1000,"COC[C@@H](F)CN(CCCCc1ccc2c(n1)NCCC2)CC[C@H](Nc1cc(-c2ccccc2)ncn1)C(=O)O [Compound 128, (S)-4-(((S)-2-fluoro-3-methoxypropyl) (4-(5,6,7,8-tetrahydro-1,8-naphthyridin-2-yl)butyl)amino)-2-((6-phenylpyrimidin-4-yl)amino) butanoic acid]",–
< 50,"O=C(O)[C@H](CCN(CCCCc1ccc2c(n1)NCCC2)CC1CCO1)Nc1ncnc2ccccc12 (stereo partly drawn) [Compound 129, (2S)-4-((oxetan-2-ylmethyl) (4-(5,6,7,8-tetrahydro-1,8-naphthyridin-2-yl)butyl)amino)-2-(quinazolin-4-ylamino) butanoic acid]",–
< 50,"O=C(O)[C@H](CCN(CCCCc1ccc2c(n1)NCCC2)CC(CO)CO)Nc1ncnc2ccccc12 [Compound 130, (S)-4-((3-hydroxy-2-(hydroxymethyl)propyl) (4-(5,6,7,8-tetrahydro-1,8-naphthyridin-2-yl)butyl)amino)-2-(quinazolin-4-ylamino) butanoic acid]",–
< 50,"Cn1ncc2c(N[C@@H](CCN(CCCF)CCCCc3ccc4c(n3)NCCC4)C(=O)O)ncnc21 [Compound 136, (S)-4-((3-fluoropropyl) (4-(5,6,7,8-tetrahydro-1,8-naphthyridin-2-yl)butyl)amino)-2-((1-methyl-1H-pyrazolo[3,4-d]pyrimidin-4-yl)amino) butanoic acid]",–
< 50,"O=C(O)[C@H](CCN(CCCF)CCCCc1ccc2c(n1)NCCC2)Nc1ncc(C(F)(F)F)cn1 [Compound 137, (S)-4-((3-fluoropropyl) (4-(5,6,7,8-tetrahydro-1,8-naphthyridin-2-yl)butyl)amino)-2-((5-(trifluoromethyl)pyrimidin-2-yl)amino) butanoic acid]",–
< 50,"N#Cc1cnc(N[C@@H](CCN(CCCCc2ccc3c(n2)NCCC3)CCOc2ccc(F)cc2)C(=O)O)nc1 [Compound 138, (S)-2-((5-cyanopyrimidin-2-yl)amino)-4-((2-(4-fluorophenoxy)ethyl) (4-(5,6,7,8-tetrahydro-1,8-naphthyridin-2-yl)butyl)amino) butanoic acid]",–
< 50,"O=C(O)[C@H](CCN(CCCCc1ccc2c(n1)NCCC2)CCOc1ccc(F)cc1)Nc1ncc(C(F)(F)F)cn1 [Compound 139, (S)-4-((2-(4-fluorophenoxy)ethyl) (4-(5,6,7,8-tetrahydro-1,8-naphthyridin-2-yl)butyl)amino)-2-((5-(trifluoromethyl)pyrimidin-2-yl)amino) butanoic acid]",–
< 50,"CN(C)C(=O)CN(CCCCc1ccc2c(n1)NCCC2)CC[C@H](Nc1ncnc2c1cnn2C)C(=O)O [Compound 140, (S)-4-((2-(dimethylamino)-2-oxoethyl) (4-(5,6,7,8-tetrahydro-1,8-naphthyridin-2-yl)butyl)amino)-2-((1-methyl-1H-pyrazolo[3,4-d]pyrimidin-4-yl)amino) butanoic acid]",–
> 1000,"O=C(O)[C@H](CCN(CCCCc1ccc2c(n1)NCCC2)CC(F)F)Nc1cc(-c2ccccc2)ncn1 [Compound 142, (S)-4-((2,2-difluoroethyl) (4-(5,6,7,8-tetrahydro-1,8-naphthyridin-2-yl)butyl)amino)-2-((6-phenylpyrimidin-4-yl)amino) butanoic acid]",–
< 50,"CN(C)C(=O)CN(CCCCc1ccc2c(n1)NCCC2)CC[C@H](Nc1ccnc(C(F)(F)F)n1)C(=O)O [Compound 145, (S)-4-((2-(dimethylamino)-2-oxoethyl) (4-(5,6,7,8-tetrahydro-1,8-naphthyridin-2-yl)butyl)amino)-2-((2-(trifluoromethyl)pyrimidin-4-yl)amino) butanoic acid]",–
> 1000,"O=C(O)[C@H](CCN(CCCCc1ccc2c(n1)NCCC2)CC(F)F)Nc1ncc(C2CC2)cn1 [Compound 146, (S)-2-((5-cyclopropylpyrimidin-2-yl)amino)-4-((2,2-difluoroethyl) (4-(5,6,7,8-tetrahydro-1,8-naphthyridin-2-yl)butyl)amino) butanoic acid]",–
–,"CC(C)(C)c1cc(Br)cc([C@H](CC(=O)O)NC(=O)CNC(=O)c2cc(O)cc(NC3=NCC(O)CN3)c2)c1 (stereo partly drawn) [second pan-av small molecule inhibitor, (3S)—N-[3-hydroxy-5-[(1,4,5,6-tetrahydro-5-hydroxy-2-pyrimidinyl)amino]benzoyl]glycyl-3-[3-bromo-5-(1,1-dimethylethyl)phenyl]-β-alanine]",reduced Type I Collagen gene Col1a1 expression
